According to PMC10747913, “Preparation of ^18F-Labeled Tracers Targeting Fibroblast Activation Protein via Sulfur [^18F]Fluoride Exchange Reaction” (Pharmaceutics, 2023):
Entries after “also recorded” stand apart in the source; their conditions may differ.

Key:
[1] = target: T1, human recombinant FAP (Homo sapiens, UniProt Q12884); assay: Fluorogenic FAP enzyme inhibition assay (BPS Bioscience #80210, Ala-Pro-AMC substrate); format: biochemical; details: for Hill Coefficient: mean with 95% confidence interval in brackets
T1 construct: purchased BPS Bioscience 80210
T1 sequence (Q12884 1-760): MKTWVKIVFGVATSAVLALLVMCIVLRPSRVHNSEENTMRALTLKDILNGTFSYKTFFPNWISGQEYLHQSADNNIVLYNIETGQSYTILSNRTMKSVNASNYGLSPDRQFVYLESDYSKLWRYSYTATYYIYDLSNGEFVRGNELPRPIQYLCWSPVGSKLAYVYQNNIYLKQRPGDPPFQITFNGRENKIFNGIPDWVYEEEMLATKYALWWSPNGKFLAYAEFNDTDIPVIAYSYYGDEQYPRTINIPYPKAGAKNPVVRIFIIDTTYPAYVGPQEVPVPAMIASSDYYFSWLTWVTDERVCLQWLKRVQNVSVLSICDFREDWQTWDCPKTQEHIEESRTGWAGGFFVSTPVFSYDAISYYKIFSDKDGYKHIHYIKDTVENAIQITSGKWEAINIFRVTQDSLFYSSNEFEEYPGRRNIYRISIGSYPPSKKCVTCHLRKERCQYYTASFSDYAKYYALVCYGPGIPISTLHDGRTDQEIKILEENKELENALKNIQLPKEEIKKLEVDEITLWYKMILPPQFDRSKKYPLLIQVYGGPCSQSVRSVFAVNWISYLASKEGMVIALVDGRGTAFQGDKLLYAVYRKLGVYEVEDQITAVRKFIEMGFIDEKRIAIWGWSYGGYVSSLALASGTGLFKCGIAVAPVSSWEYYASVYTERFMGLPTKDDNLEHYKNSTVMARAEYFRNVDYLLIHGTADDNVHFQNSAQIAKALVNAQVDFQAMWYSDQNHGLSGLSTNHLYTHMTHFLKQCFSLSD
Experimental: To determine the inhibitory capacity, a commercial fluorogenic FAP assay was used (BPS Bioscience, San Diego, CA, USA, #80210) according to the manufacturer’s instructions. […] On the day of testing, a 1:10 dilution in the supplied DPP assay buffer was performed for all compounds. […] The fluorogenic peptide substrate (Ala-Pro-AMC dipeptide) was added and the reaction started with the addition of the human recombinant FAP (25 ng/µL). Immediately, the plate was loaded into a multilabel plate reader (Biotek Cytation 5, Agilent, Bellevue, WA, USA) and each well was measured at an excitation wavelength window of 360 ± 20 nm and an emission wavelength window of 450 ± 20 nm. The fluorescence intensity was measured over 15 min in intervals of 15 s, resulting in 61 data points per curve. Controls included blanks (omission of substrate, enzyme and inhibitor), negative (omission of enzyme) and positive controls (omission of inhibitor). The recorded time courses of the type (RFU − RFU0) = f(t) were analyzed with linear regression of the experimental data over the entire measurement period. […] (2) rate=Bottom+(Top−Bottom)×[I]^nH/[I]^nH+IC50^nH
Spanning a range of compound concentrations (50 pM–1 µM), fluorescence intensity changes were followed over 15 min.

[2] = Liver cytosol assay (RLC); format: in vitro ADME, rat; details: for stability toward RLC: 2 mg/mL RLC, up to 60 min, 37 °C
Experimental: (§1) Liver cytosol experiments with [^18F]12 were performed according to reported procedures.
(§2) Vanilin (40 µM final) was used as positive control for the activity of the liver cytosols and was separately incubated under the conditions described above (1% EtOH final). […] More than 80% of the vanilin had been degraded after 60 min in the presence of HLC, while around 60% of the vanilin had been degraded with RLC. There was no change in the degradation rate with and without 1% EtOH in the incubation mixture.

[3] = Liver cytosol assay (HLC); format: in vitro ADME, human; details: for stability toward HLC: 2 mg/mL HLC, up to 60 min, 37 °C
Experimental: as §1, §2

[4] = Experimental: Microsome experiments with [^18F]12 in the presence of NADPH were performed according to the procedure recently described by us with slight modifications. […] The radiotracer dissolved in EtOH (4 µL; 5 MBq/µL) was diluted with PBS (496 µL, 0.8% EtOH). This radiotracer solution (100 µL, 0.32% EtOH and 16 MBq/mL or 1.6 µM final) was mixed with PBS (112.5 µL) and human liver microsomes (12.5 µL of 20 mg/mL stock; 1 mg/mL final; Gibco™ Cat. No. HMMCPL, Lot. No. PL050E-B) in a 1.5 mL Eppendorf tube and the mixture was warmed for 5 min at 37 °C. Subsequently, NADPH (25 µL of freshly prepared 20 mM solution in PBS, 2 mM final) was added and the mixture was incubated at 37 °C. As a control incubation, NADPH was omitted and replaced by PBS. After distinct time points (10, 20, 30 and 60 min), an aliquot (40 µL) was withdrawn and added to ice-cooled CH3CN (160 µL). The mixture was vortexed for 30 s, stored on ice for 4 min and centrifuged (5 min at 15,000 rpm). The resulting supernatant was used for radio-HPLC analysis using the Shimadzu system described in Section 2.2 with the following conditions. A C18 column Kinetex® from Phenomenex (5 µm, 100 Å, LC Column 250 × 4.6 mm) served as stationary phase. The eluent consisted of (A) 0.1% trifluoroacetic acid in H2O and (B) MeCN; flow rate 1 mL/min; elution profile A/B: t0 min 70/30–t10.0 min 70/30–t11.0 min 5/95–t16.0 min 5/95–t17.0 min 70/30–t22.0 min 70/30.
Testosterone (40 µM final) was used as a positive control for the activity of the HLM and was separately incubated under the conditions described above (0% EtOH final).

[5] = Stability in EtOH; format: physicochemical; details: 120 min
Experimental: In addition, we performed a series of stability studies of compounds [^18F]12 and [^18F]13 in EtOH, phosphate-buffered saline (PBS, pH 7.4) and human serum (37 °C) to provide an indication of the rates of in vivo defluorination. […] These findings correlate with the unwanted accumulation of activity in the bones and joints obtained during PET imaging experiments in a healthy mice (Figure 5A,B).

[6] = Stability in PBS (pH 7.4); format: physicochemical; details: PBS pH 7.4, 120 min
Experimental: (§3) The radiochemical purity and identity of [^18F]12 and [^18F]13 was analyzed with radio-HPLC. […] Prior to a biological evaluation, preliminary stability studies of [^18F]12 and [^18F]13 were performed in human serum at 37 °C (Figure 3A,B). The stability studies were performed by taking an aliquot of the radiolabeled product solution and incubating the product mixture in the desired solvent or human serum at 37 °C for the given time points. In both cases, decomposition of [^18F]12 and [^18F]13 was evident from the first peak in the radioactive channel (tR: 0.6–1.0), most likely due to the release of [^18F]fluoride, which could be detected using UHPLC analysis from the first time point of 15 min and continued until 120 min. After 60 min, approximately 20% of [^18F]12 and 19% of [^18F]13 had been degraded; following a 120 min incubation, approximately 38% of both [^18F]12 and [^18F]13 had been degraded.

[7] = Serum stability assay at 37 °C (radio-UHPLC); format: in vitro ADME, human; details: for stability in human serum: after only 15 min
Experimental: Either [^18F]12 or [^18F]13 (20–40 MBq) in 40 µL EtOH aliquots was incubated with 360 µL human serum (Sigma Aldrich, Darmstadt, Germany) at 37 °C. After specific time intervals (5–120 min), 40 µL samples were taken from the serum incubation mixture, added to 80 µL “Supersol” solubilizing agent (see Supplementary Materials Table S6) and cooled over ice for 2 min. Thereafter, the cooled mixture was centrifuged at 4 °C (15,000 rpm) for 3 min and 80 µL of the supernatant solution was monitored with radio-UHPLC. A gradient of 5% to 45% acetonitrile in 7.5 min was used for enhanced separation.
as §3

[8] = Small-animal PET distribution in healthy mice; format: in vivo, BALB/cJRj mice
Experimental: All animal experiments were carried out according to the guidelines of the German Regulation for Animal Welfare. The protocol was approved by the local Ethical Committee for Animal Experiments. Small-animal PET was performed using the nanoScan® PET/CT (Mediso Medical Imaging Systems, Budapest, Hungary). Each animal (BALB/cJRj mice, n = 2) received an intravenous injection of 10 MBq [^18F]12 delivered in 0.15 mL of 0.154 mol/L NaClaq through a tail vein catheter. Emission of annihilation photons was recorded continuously for 2 h. A corresponding X-ray CT image was recorded and used for anatomical referencing and attenuation correction. List-mode data were sorted into sinograms with 36 frames (15 × 10 s, 5 × 30 s, 5 × 60 s, 4 × 300 s, 3 × 600 s, 4 × 900 s) and reconstructed using the Tera-Tomo™ 3D algorithm, applying corrections for decay, scatter and attenuation. […] Three-dimensional regions of interest (ROI) were created, applying fixed contrast thresholds for delineation of blood (heart content, 80%), liver (80%), kidneys (50%), bone (knee and shoulder joints, 50%), gall bladder and intestine (5%) and urinary bladder (10%). Organ-specific activity concentrations were determined as ROI-averaged standardized uptake values at mid-frame time (SUVmean). Time–activity curves were drawn using Prism 9.0 (GraphPad Software, La Jolla, CA, USA) and the activity retention within each organ was reported as the area under the curve (AUC). Excreted activity fractions were determined as the percent of the initially administered activity dose (%ID).

[9] = LogD7.4 determination by n-octanol/PBS partitioning; format: physicochemical; details: n-octanol/phosphate-buffered saline; partitioning between PBS pH 7.4 and octanol
Experimental: The LogD7.4 determination of [^18F]12 was determined in a similar manner as previously described and proceeded as follows. [^18F]12 (1 μL, ca. 0.5 MBq) was pipetted into an Eppendorf tube containing 600 μL of n-octanol (presaturated with phosphate-buffered saline) and 600 μL of phosphate-buffered saline buffer (0.02 M, pH = 7.4). The tube was vortexed for 15 min at room temperature, and the two phases were separated by centrifugation at 5000 rpm for 3 min. An aliquot (400 µL) from the n-octanol layer was pipetted in a vial containing phosphate-buffered saline (400 µL), the sample mixture was vortexed for 15 min at room temperature and the two phases were separated by centrifugation at 5000 rpm for 3 min. Aliquots (250 µL) from each phase were taken and measured with an automatic γ-counter after subtracting the background activity. The transfer of the aqueous phase requires particular care, as described by Linclau et al.. The partition coefficient was calculated for the acquired samples using Equation (1). (1) logD7.4=log counts per minute (octanol)/counts per minute (phosphate buffer)

[10] = positive control, 40 µM, after 60 min

N#C[C@@H]1CC(F)(F)CN1C(=O)CNC(=O)c1ccnc2ccc(OCCCN3CCN(C(=O)c4cccc(OS(=O)(=O)F)c4)CC3)cc12 [compound 13]
IC50 [1]: 4.17 nM | Hill Coefficient [1]: −1.27 (−1.98 to −0.91)

COc1cc(C=O)ccc1O [vanilin, Vanilin, reference compound]
fraction degraded with RLC [2, 10]: around 60% | fraction degraded in presence of HLC [3, 10]: More than 80%

C[C@]12CC[C@H]3[C@@H](CCC4=CC(=O)CC[C@@]43C)[C@@H]1CC[C@@H]2O [Testosterone, reference compound]
time after which metabolization was completed ([4]; human): > 30 min

N#C[C@@H]1CC(F)(F)CN1C(=O)CNC(=O)c1ccnc2ccc(OCCCN3CCN(C(=O)CN4CCN(CC(=O)O)CCN(CC(=O)O)CCN(CC(=O)O)CC4)CC3)cc12 [FAPI-04, reference compound]
Hill Coefficient [1]: −1.51 (−2.51 to −0.95)

N#C[C@@H]1CC(F)(F)CN1C(=O)CNC(=O)c1ccnc2ccc(OCCCN3CCN(C(=O)c4cccc(OS(=O)(=O)[18F])c4)CC3)cc12 [[^18F]13]
stability in EtOH [5]: stable | stability in PBS [6]: stable | fraction degraded in human serum ([7]; 120 min incubation): approximately 38% | fraction degraded in human serum ([7]; after 60 min): ~19% | stability in human serum [7]: clear signs of instability

N#C[C@@H]1CC(F)(F)CN1C(=O)CNC(=O)c1ccnc2ccc(OCCCN3CCN(C(=O)c4ccc(OS(=O)(=O)F)cc4)CC3)cc12 [compound 12]
IC50 [1]: 9.63 nM | Hill Coefficient [1]: −1.56 (−2.43 to −1.059)

N#C[C@@H]1CC(F)(F)CN1C(=O)CNC(=O)c1ccnc2ccc(OCCCN3CCN(C(=O)c4ccc(OS(=O)(=O)[18F])cc4)CC3)cc12 [[^18F]12]
time of maximum activity concentration in kidney ([8]; i.v., after injection): 2 min | time of maximum activity concentration in liver ([8]; i.v., after injection): 2 min | activity concentration in bones ([8]; i.v., within 2 h): continuously increasing | fraction of initially delivered activity dose excreted via hepatobiliary pathway ([8]; retention in gall bladder and intestine, 2 h): 45% | fraction of initially delivered activity dose excreted via renal pathway ([8]; retention in urinary bladder, 2 h): 10% | stability toward RLC [2]: largely stable; also recorded: mostly stable | stability toward RLC ([2]; listed as [18F]12): No degradation | stability in EtOH [5]: stable | stability in PBS [6]: stable | half-time toward HLM ([4]; 1 mg/mL HLM, 2 mM NADPH, 1.6 µM tracer, 37 °C, one-phase decay): 4.4 min | stability in presence of HLM without NADPH (control) ([4]; NADPH omitted, 60 min): apparently stable | fraction degraded in human serum ([7]; 120 min incubation): approximately 38% | fraction degraded in human serum ([7]; after 60 min): approximately 20% | stability in human serum [7]: clear signs of instability | logD [9]: 1.81 | stability toward HLC [3]: largely stable; also recorded: mostly stable | stability toward HLC ([3]; listed as [18F]12): No degradation | substrate of aldehyde oxidase (AO) ([3]; liver cytosols as source of AO): not to be a substrate of AO
